Experimental data as given in article PMC6108835, “Target-Based Discovery of an Inhibitor of the Regulatory Phosphatase PPP1R15B” (Cell, 2018).

Legend:
PP1c = PP1c (Homo sapiens, UniProt P36873); assay: SPR, compounds binding to PP1c alone immobilized on streptavidin chip; parameters: cDNA encoding for human PP1cγ (aa 1-322) was cloned into two baculovirus transfer vectors; made in house; host or cells: Sf9 insect cells (baculovirus); details: PP1c immobilized on SA chip
Method: (§1) Small molecules were stored as 50 mM stock solutions in 100% DMSO. […] If necessary the concentration range was adjusted to accurately determine the KD depending on the initial results. […] This was followed by 1 min stabilization period, to wash off any unspecific binding. […] After each dilution series, the surface was regenerated using 3 M NaCl for 90 s. […] In order to be able to correct for small variations in DMSO concentration between samples, eight solvent samples ranging from 0.06 to 8% DMSO were injected every 50th cycle. The flow cell temperature was 20°C.

[1] = target: T1, R15A-PP1c holophosphatase (R15A^325-636-PP1c) (Homo sapiens, UniProt O75807); assay: Holophosphatase SPR, compounds binding to reconstituted R15A-PP1c; details: holophosphatase reconstituted on SA chip; 20°C; mean ± SD; read-out: KD, steady-state affinity for R15A-PP1c
T1 construct: cDNAs encoding amino acids 325-636 of R15A and 340-698 of R15B were cloned into pMAL-c5x; made in house; host or cells: R15A: E. coli BL21-Gold (DE3) pLysS; bio-PP1c: Sf9 insect cells (baculovirus)
T1 sequence (O75807 325-636, stated change not applied): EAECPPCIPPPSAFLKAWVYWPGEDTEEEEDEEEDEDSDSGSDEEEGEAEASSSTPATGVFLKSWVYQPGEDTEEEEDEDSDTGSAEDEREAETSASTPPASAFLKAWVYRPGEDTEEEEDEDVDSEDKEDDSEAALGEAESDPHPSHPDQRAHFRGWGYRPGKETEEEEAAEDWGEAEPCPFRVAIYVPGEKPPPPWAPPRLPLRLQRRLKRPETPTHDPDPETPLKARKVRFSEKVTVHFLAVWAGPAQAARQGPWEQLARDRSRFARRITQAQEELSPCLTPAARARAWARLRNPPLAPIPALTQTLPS
T1 sequence (P36873 1-322 partner): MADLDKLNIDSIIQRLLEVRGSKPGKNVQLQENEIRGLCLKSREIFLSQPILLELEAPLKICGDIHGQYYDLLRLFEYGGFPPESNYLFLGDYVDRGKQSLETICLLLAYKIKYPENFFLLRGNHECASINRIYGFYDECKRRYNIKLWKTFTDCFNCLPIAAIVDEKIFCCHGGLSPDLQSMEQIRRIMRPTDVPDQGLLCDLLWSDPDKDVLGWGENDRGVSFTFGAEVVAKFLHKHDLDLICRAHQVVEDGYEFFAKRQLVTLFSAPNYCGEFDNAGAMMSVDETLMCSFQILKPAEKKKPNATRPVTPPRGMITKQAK
Method: as §1

R15A = R15A (Homo sapiens, UniProt O75807); assay: Limited trypsin digestion of R15A; parameters: cDNAs encoding amino acids 325-636 of R15A and 340-698 of R15B were cloned into pMAL-c5x; made in house; host or cells: E. coli BL21-Gold (DE3) pLysS; details: R15 3 μM, compound 100 μM, trypsin 5 nM, 5 min, 22°C
Sequence of R15A (O75807 325-636, stated change not applied): as the sequence (O75807 325-636, stated change not applied) above
Method: Reactions were initiated by addition of 5 nM of trypsin from bovine pancreas (Sigma-Aldrich), made up in PBS, and allowed to proceed for 5 min at 22°C, with shaking at 350 rpm. […] Proteins were visualized by staining with InstantBlue Protein Stain (Expedeon).

wild-type mice = assay: Morris water maze; format: in vivo, mouse; details: 2 mg/kg for 2 weeks
Method: Morris water maze and the following fear conditioning were performed on C57BL/6J wild-type males aged 2.5 months. Mice were treatment- and test-naive before the treatment started. Treatment with Raphin1 started two weeks before and was continued during the behavioral tests.
The water maze consisted of a white circular tank (1.50 m diameter) filled with opaque water adjusted to 21 ± 1°C. For the hidden platform task, the escape platform (10 cm diameter) was positioned 1 cm below water surface in the center of one of the pool quadrants. The walls surrounding the water maze were hung with posters and flags, which served as visual cues and were visible during all stages of 5 trainings and testing. Movement of the mice within the pool was tracked and analyzed with a computerized tracking system (ViewPoint, France). During training mice were required to locate a submerged hidden platform by using only extra-maze cues. Each mouse received five blocks of training trials over five consecutive days. […] Spatial learning performance was assessed during a probe trial 1 hr after the last session of training, and for which the target platform was removed from the pool. To evaluate the performance during training trials the latency and distance traveled to find the hidden platform were measured. […]

[2] = Monitoring Raphin1 stability in cell culture media; format: physicochemical; details: 10 μM, 37°C, 0-10 hr, mass spectrometry
Method: Raphin1, 10 μM (from a 10 mM DMSO stock), was added to 20 mL of pre-warmed water or cell culture media, in tightly-sealed 20 mL glass vials to reduce evaporation and incubated in an incubator at 37°C. 50 μL samples were taken at 0, 1, 2, 5, 7.5 and 10 hr and added to an Eppendorf tube containing 200 μL of chilled acetonitrile and internal standards. The samples were stored in a −20°C freezer until the end of the study. The samples were then analyzed by mass spectrometry using a TQ-S micro Triple Quadrupole from Waters and compared against a standard curve prepared in the same manner as the samples.

Sequence of PP1c (P36873 1-322): as the sequence (P36873 1-322 partner) above

[H]/N=C(\N)NN=Cc1cccc(Cl)c1Cl [Raphin1, (E)-2-(2,3-dichlorobenzylidene)hydrazine-1-carboximidamide]
Binding to PP1c alone (in words) (PP1c): did not bind | Kd [1]: 977 nM | Protease sensitivity of R15A (limited proteolysis, conformational change) (R15A): no effect | Adverse effects on memory, Morris water maze (wild-type mice): no adverse effects | Stability in cell culture media over time [2]: stable
